{"source": "patent US10626144B2", "about": "“Peptide derivatives and uses thereof” (Nosopharm, priority 2014, dated 2020)", "key": {"[1]": {"target": "N-type calcium channels (Cav2.2) (Rattus norvegicus (Rat), UniProt Q02294)", "test": "biochemical", "type": "binding", "conditions": "class symbol; rat cerebral cortex, [125I]ω-conotoxin GVIA 0.001 nM, 30 minutes at room temperature; read-out: IC50 Cav2.2"}, "[2]": {"system": "Pseudomonas aeruginosa ATCC 27853", "test": "MIC, broth microdilution (CLSI), reference strain", "conditions": "CAMHB"}, "[3]": {"system": "Escherichia coli ATCC 25922", "test": "MIC, broth microdilution (CLSI), reference strain", "conditions": "CAMHB"}, "[4]": {"system": "Staphylococcus aureus ATCC 13709", "test": "MIC, broth microdilution (CLSI), reference strain", "conditions": "CAMHB"}, "[5]": {"system": "Acinetobacter baumannii ATCC 19606", "test": "MIC, broth microdilution (CLSI), reference strain", "conditions": "CAMHB"}}, "note": "Square brackets hold non-standard residues; d marks the D form. Peptide text beside a SMILES is read from it. * marks the point of attachment. Dab(3S-OH) = NC[C@H](O)[C@H](N)C(=O)O; His(τ-Me) = Cn1cnc(C[C@H](N)C(=O)O)c1; ΔZArg = N=C(N)NCC/C=C(\\N)C(=O)O; aThr = C[C@H](O)[C@H](N)C(=O)O; dOrn = NCCC[C@@H](N)C(=O)O; Pra = C#CC[C@H](N)C(=O)O; NH(CH2)4NH2 = NCCCCN*", "data": [{"smiles": "CC(C)[C@H](NC(=O)[C@@H](NC(=O)[C@@H](N)CCCCN)[C@@H](O)CN)C(=O)NCC(=O)N[C@H](CCCN)C(=O)N1CCC[C@H]1C(=O)N[C@@H](Cc1cnc[nH]1)C(=O)N[C@@H](CCCCN)C(=O)N/C(=C\\CCNC(=N)N)C(=O)N[C@@H](CCCCN)C(=O)NCCCCN", "note": "[212.1] (H-K[Dab(3S-OH)]VG[dOrn]PHK[ΔZArg]K-{NH(CH2)4NH2})", "values": [{"measurement": "IC50", "setting": "[1]", "value": "< 30", "unit": "nM"}, {"measurement": "Pa: MIC Pseudomonas aeruginosa ATCC 27853", "setting": "[2]", "value": "− (>32 μg/mL)"}, {"measurement": "Ec: MIC Escherichia coli ATCC 25922", "setting": "[3]", "value": "++ (≤8 μg/mL)"}, {"measurement": "Sa: MIC Staphylococcus aureus ATCC 13709", "setting": "[4]", "value": "++ (≤8 μg/mL)"}, {"measurement": "Ab: MIC Acinetobacter baumannii ATCC 19606", "setting": "[5]", "value": "− (>32 μg/mL)"}]}, {"smiles": "C[C@H](NC(=O)[C@@H](NC(=O)[C@@H](N)CCCCN)[C@@H](O)CN)C(=O)NCC(=O)N[C@H](CCCN)C(=O)N1CCC[C@H]1C(=O)N[C@@H](Cc1cnc[nH]1)C(=O)N[C@@H](CCCCN)C(=O)N/C(=C\\CCNC(=N)N)C(=O)N[C@@H](CCCCN)C(=O)NCCCCN", "note": "[24.1] (H-K[Dab(3S-OH)]AG[dOrn]PHK[ΔZArg]K-{NH(CH2)4NH2})", "values": [{"measurement": "IC50", "setting": "[1]", "value": "< 30", "unit": "nM"}, {"measurement": "Pa: MIC Pseudomonas aeruginosa ATCC 27853", "setting": "[2]", "value": "+ (≤32 μg/mL)"}, {"measurement": "Ec: MIC Escherichia coli ATCC 25922", "setting": "[3]", "value": "++ (≤8 μg/mL)"}, {"measurement": "Sa: MIC Staphylococcus aureus ATCC 13709", "setting": "[4]", "value": "++ (≤8 μg/mL)"}, {"measurement": "Ab: MIC Acinetobacter baumannii ATCC 19606", "setting": "[5]", "value": "+ (≤32 μg/mL)"}]}, {"smiles": "C#CC[C@H](NC(=O)[C@@H]1CCCN1C(=O)[C@@H](CCCN)NC(=O)CNC(=O)[C@H](C)NC(=O)[C@@H](NC(=O)[C@@H](N)CCCCN)[C@@H](O)CN)C(=O)N[C@@H](CCCCN)C(=O)N/C(=C\\CCNC(=N)N)C(=O)N[C@@H](CCCCN)C(=O)NCCCCN", "note": "[24.67] (H-K[Dab(3S-OH)]AG[dOrn]P[Pra]K[ΔZArg]K-{NH(CH2)4NH2})", "values": [{"measurement": "IC50", "setting": "[1]", "value": "< 30", "unit": "nM"}, {"measurement": "Pa: MIC Pseudomonas aeruginosa ATCC 27853", "setting": "[2]", "value": "+ (≤32 μg/mL)"}, {"measurement": "Ec: MIC Escherichia coli ATCC 25922", "setting": "[3]", "value": "++ (≤8 μg/mL)"}, {"measurement": "Sa: MIC Staphylococcus aureus ATCC 13709", "setting": "[4]", "value": "− (>32 μg/mL)"}, {"measurement": "Ab: MIC Acinetobacter baumannii ATCC 19606", "setting": "[5]", "value": "− (>32 μg/mL)"}]}, {"smiles": "C[C@H](N)C(=O)N[C@H](C(=O)N[C@H](C(=O)NCC(=O)N[C@H](CCCN)C(=O)N1CCC[C@H]1C(=O)N[C@@H](Cc1cnc[nH]1)C(=O)N[C@@H](CCCCN)C(=O)N/C(=C\\CCNC(=N)N)C(=O)N[C@@H](CCCCN)C(=O)NCCCCN)[C@@H](O)CN)[C@@H](O)CN", "note": "[22.16] (H-A[Dab(3S-OH)][Dab(3S-OH)]G[dOrn]PHK[ΔZArg]K-{NH(CH2)4NH2})", "values": [{"measurement": "IC50", "setting": "[1]", "value": "< 30", "unit": "nM"}, {"measurement": "Pa: MIC Pseudomonas aeruginosa ATCC 27853", "setting": "[2]", "value": "− (>32 μg/mL)"}, {"measurement": "Ec: MIC Escherichia coli ATCC 25922", "setting": "[3]", "value": "+ (≤32 μg/mL)"}, {"measurement": "Sa: MIC Staphylococcus aureus ATCC 13709", "setting": "[4]", "value": "++ (≤8 μg/mL)"}, {"measurement": "Ab: MIC Acinetobacter baumannii ATCC 19606", "setting": "[5]", "value": "− (>32 μg/mL)"}]}, {"smiles": "C[C@H](NC(=O)[C@@H](NC(=O)[C@@H](N)CCCCN)[C@@H](O)CN)C(=O)NCC(=O)N[C@H](CCCN)C(=O)N1CCC[C@H]1C(=O)N[C@@H](Cc1cn(C)cn1)C(=O)N[C@@H](CCCCN)C(=O)N/C(=C\\CCNC(=N)N)C(=O)N[C@@H](CCCCN)C(=O)NCCCCN", "note": "[24.15] (H-K[Dab(3S-OH)]AG[dOrn]P[His(τ-Me)]K[ΔZArg]K-{NH(CH2)4NH2})", "values": [{"measurement": "IC50", "setting": "[1]", "value": "< 30", "unit": "nM"}, {"measurement": "Pa: MIC Pseudomonas aeruginosa ATCC 27853", "setting": "[2]", "value": "+ (≤32 μg/mL)"}, {"measurement": "Ec: MIC Escherichia coli ATCC 25922", "setting": "[3]", "value": "++ (≤8 μg/mL)"}, {"measurement": "Sa: MIC Staphylococcus aureus ATCC 13709", "setting": "[4]", "value": "++ (≤8 μg/mL)"}, {"measurement": "Ab: MIC Acinetobacter baumannii ATCC 19606", "setting": "[5]", "value": "− (>32 μg/mL)"}]}, {"smiles": "CC(C)[C@H](NC(=O)[C@@H](NC(=O)[C@@H](N)CCCCN)[C@@H](O)CN)C(=O)NCC(=O)N[C@H](CCCN)C(=O)N1CCC[C@H]1C(=O)N[C@@H](Cc1cnc[nH]1)C(=O)N[C@@H](CCCCN)C(=O)N/C(=C\\CCNC(=N)N)C(=O)O", "note": "[212.2] (H-K[Dab(3S-OH)]VG[dOrn]PHK[ΔZArg]-OH)", "values": [{"measurement": "IC50", "setting": "[1]", "value": "> 300", "unit": "nM"}, {"measurement": "Pa: MIC Pseudomonas aeruginosa ATCC 27853", "setting": "[2]", "value": "− (>32 μg/mL)"}, {"measurement": "Ec: MIC Escherichia coli ATCC 25922", "setting": "[3]", "value": "− (>32 μg/mL)"}, {"measurement": "Sa: MIC Staphylococcus aureus ATCC 13709", "setting": "[4]", "value": "+ (≤32 μg/mL)"}, {"measurement": "Ab: MIC Acinetobacter baumannii ATCC 19606", "setting": "[5]", "value": "− (>32 μg/mL)"}]}, {"smiles": "C[C@H](NC(=O)[C@@H](NC(=O)[C@@H](NC(=O)[C@@H](N)CCCCN)[C@@H](O)CN)[C@@H](O)CN)C(=O)N[C@H](CCCN)C(=O)N1CCC[C@H]1C(=O)N[C@@H](Cc1cnc[nH]1)C(=O)N[C@@H](CCCCN)C(=O)N/C(=C\\CCNC(=N)N)C(=O)N[C@@H](CCCCN)C(=O)NCCCCN", "note": "[22.24] (H-K[Dab(3S-OH)][Dab(3S-OH)]A[dOrn]PHK[ΔZArg]K-{NH(CH2)4NH2})", "values": [{"measurement": "IC50", "setting": "[1]", "value": "< 30", "unit": "nM"}, {"measurement": "Pa: MIC Pseudomonas aeruginosa ATCC 27853", "setting": "[2]", "value": "− (>32 μg/mL)"}, {"measurement": "Ec: MIC Escherichia coli ATCC 25922", "setting": "[3]", "value": "− (>32 μg/mL)"}, {"measurement": "Sa: MIC Staphylococcus aureus ATCC 13709", "setting": "[4]", "value": "++ (≤8 μg/mL)"}, {"measurement": "Ab: MIC Acinetobacter baumannii ATCC 19606", "setting": "[5]", "value": "− (>32 μg/mL)"}]}, {"smiles": "C[C@H](O)[C@H](NC(=O)[C@@H](NC(=O)[C@@H](N)CCCCN)[C@@H](O)CN)C(=O)NCC(=O)N[C@H](CCCN)C(=O)N1CCC[C@H]1C(=O)N[C@@H](Cc1cnc[nH]1)C(=O)N[C@@H](CCCCN)C(=O)N/C(=C\\CCNC(=N)N)C(=O)O", "note": "[25.2] (H-K[Dab(3S-OH)][aThr]G[dOrn]PHK[ΔZArg]-OH)", "values": [{"measurement": "IC50", "setting": "[1]", "value": "> 300", "unit": "nM"}, {"measurement": "Pa: MIC Pseudomonas aeruginosa ATCC 27853", "setting": "[2]", "value": "− (>32 μg/mL)"}, {"measurement": "Ec: MIC Escherichia coli ATCC 25922", "setting": "[3]", "value": "− (>32 μg/mL)"}, {"measurement": "Sa: MIC Staphylococcus aureus ATCC 13709", "setting": "[4]", "value": "− (>32 μg/mL)"}, {"measurement": "Ab: MIC Acinetobacter baumannii ATCC 19606", "setting": "[5]", "value": "− (>32 μg/mL)"}]}]}
